According to article PMC10477861, “Efficient Mining of Anticancer Peptides from Gut Metagenome” (Advanced Science, 2023):
Where no end group is shown, it is not given here.

Legend:
MDA-MB-453 = test: MTT primary screening of anticancer activity, MDA-MB-453; assay type: cell-based; conditions: 25 µM pACP, 24 h, maintenance medium 1% FBS, ratio of viability to vehicle (PBS), at least three technical repetitions
Method in brief: (§1)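 Single-concentration screen: cells at 60% confluence given peptide at 25 µM for 24 h in maintenance medium with 1% FBS. Viability by MTT kit; peptides with minimum effective inhibition concentration >25 µM deemed non-ACPs.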

SK-BR-3 = test: MTT primary screening of anticancer activity, SK-BR-3; assay type: cell-based; conditions: 25 µM pACP, 24 h, maintenance medium 1% FBS, ratio of viability to vehicle (PBS), at least three technical repetitions
Method in brief: as §1

tumor-free mice = test: Acute toxicity in tumor-free mice; assay type: in vivo; conditions: for growth rate of body weight: after injection into the abdomen at 50 mg kg-1, gradually recovered over the next five days; for symptoms of illness or body weight loss, acute toxicity: injected into the abdomen at 2, 10 and 50 mg kg-1 over three days, up to 50 mg kg-1
Description: (§2) Furthermore, we investigated the safety of pACP2283 and pACP1780 both in vivo and in vitro. […] Additionally, we conducted an acute toxicity experiment in tumor‐free mice by administering pACPs with increasing concentrations into the abdomen. […] This temporary decrease in body weight growth rate may be attributed to the high concentrations of pACPs, which temporarily disturbed the mice's homeostasis.
(§3) To assess the toxicity of pACP1780 and pACP2283 at the cellular level, HEK293 cells were grown to 60% confluence in complete medium (10% FBS) for 24 h, and then treated with increasing concentrations (1.5, 3, 6, 12.5, 25, 50, and 100 µM) of each pACPs in maintenance medium (1% FBS) for 24 h. The viability of HEK293 cells was determined using the MTT Cell Proliferation and Cytotoxicity Assay Kit following the manufacturer's instructions. For acute toxicity in tumor‐free mice, the pACPs were injected into the abdomen at increasing concentrations of 2, 10, and 50 mg kg^−1 of mouse weight over three days, and the body weights were recorded throughout the process.

T47D = test: MTT primary screening of anticancer activity, T47D; assay type: cell-based; conditions: 25 µM pACP, 24 h, maintenance medium 1% FBS, ratio of viability to vehicle (PBS), at least three technical repetitions
Method in brief: as §1

LCC = test: MTT primary screening of anticancer activity, LCC; assay type: cell-based; conditions: 25 µM pACP, 24 h, maintenance medium 1% FBS, ratio of viability to vehicle (PBS), at least three technical repetitions
Method in brief: as §1

CT26 cells = test: Transmission electron microscopy of treated CT26 cells; assay type: cell-based, Murine; conditions: 10× CC50, two hours, triplicate
Description: To explore the anticancer effects of pACP2283 and pACP1780 at the cellular level, we co‐cultured confluent CT26 cells with these pACPs.
Experiments were performed in triplicate with similar results, and a representative figure is shown. c) CD results for the two selected ACPs and the corresponding proportions of secondary structures calculated from CD data using CDNN. Purple represents the water phase, blue represents the represents the peptide mixed with a 20‐fold POPC lipid mixture, and grey represents the peptide mixed with a 20‐fold POPC+POPS lipid mixture.
First, CT26 cancer cells were treated with peptides pACP1780 and pACP2283 for two hours. The digested CT26 cancer cells were then resuspended in double‐strength fixative, which consisted of 2% (w/v) paraformaldehyde and 2.5% (v/v) glutaraldehyde in 10 mM HEPES buffer (pH 7.0). Subsequently, the cells were incubated for 2 h at room temperature on a roller and stored at 4°C. Afterward, the fixed cells were pre‐embedded with agar, subjected to four washes with 5 mM HEPES buffer (pH 7.0) (5 min per wash), and post‐fixed with 1% osmium tetroxide (OsO4) for 30 min. Following post‐fixation, the specimens were rinsed twice with water and dehydrated using an acetone series (5 min each; 30%, 50%, 70%, 85%, 90%, 3×5 min 100%). […]

CT26 = test: MTT concentration gradient and CC50 against CT26; assay type: cell-based, Murine; conditions: CT26 cells, calculated with aatbio IC50 calculator from the concentration gradient
Description: To evaluate the translational relevance of our methodology, we selected these two pACPs for in vivo studies. […] Subcutaneous tumors were established using CT26 cells in athymic nude mice, and the animals were randomized to receive two intratumoral injections of 0.80 mg kg^−1 pACP2283, 0.51 mg kg^−1 pACP1780, or PBS control on day 0 and day 2. The dosage of pACPs was calculated as five times the CC50 of each compound in CT26 cells. Tumor size was monitored daily for six days (Figure 3c).
To evaluate the activity of the 40 potentially effective pACPs, a panel of 16 cancer cell lines was treated, including human CRC cell lines (HT29, Caco‐2, HCT116). Details of the cell lines used, respective media, and culture conditions were presented in Table S1 (Supporting Information). Once the cells reached 60% confluence, it was incubated with each candidate peptide at a concentration of 25 µM pACPs for 24 h. Concurrently, the complete medium was replaced with a maintenance medium containing only 1% FBS. Subsequently, the viability of each cell line using the MTT Cell Proliferation and Cytotoxicity Assay Kit according to the manufacturer's instructions was assessed. […] For the CRC cell line CT26, it was calculated the CC50 value using two peptides (pACP1780 and pACP2283) with relevant data presented in Table S6 (Supporting Information). […]

HEK293 cells = test: Toxicity to HEK293 cells (MTT); assay type: cell-based; conditions: 1.5-100 µM pACP, 24 h, maintenance medium 1% FBS
Description: as §2, §3

MDA-MB-231 = test: MTT primary screening of anticancer activity, MDA-MB-231; assay type: cell-based; conditions: 25 µM pACP, 24 h, maintenance medium 1% FBS, ratio of viability to vehicle (PBS), at least three technical repetitions
Method in brief: as §1

MCF7 = test: MTT primary screening of anticancer activity, MCF7; assay type: cell-based; conditions: 25 µM pACP, 24 h, maintenance medium 1% FBS, ratio of viability to vehicle (PBS), at least three technical repetitions
Method in brief: as §1

B16 = test: MTT primary screening of anticancer activity, B16; assay type: cell-based, Mouse; conditions: 25 µM pACP, 24 h, maintenance medium 1% FBS, ratio of viability to vehicle (PBS), at least three technical repetitions
Method in brief: as §1

Hela = test: MTT primary screening of anticancer activity, Hela; assay type: cell-based, Human; conditions: 25 µM pACP, 24 h, maintenance medium 1% FBS, ratio of viability to vehicle (PBS), at least three technical repetitions
Method in brief: as §1

MDA-MB-436 = test: MTT primary screening of anticancer activity, MDA-MB-436; assay type: cell-based; conditions: 25 µM pACP, 24 h, maintenance medium 1% FBS, ratio of viability to vehicle (PBS), at least three technical repetitions
Method in brief: as §1

Row | Sequence | Survival rate of cancer cells in primary screening (MDA-MB-453) | Survival rate of cancer cells in primary screening (SK-BR-3) | growth rate of body weight (tumor-free mice) | symptoms of illness or body weight loss, acute toxicity (tumor-free mice) | Survival rate of cancer cells in primary screening (T47D) | Survival rate of cancer cells in primary screening (LCC) | cell membranes by transmission electron microscopy (CT26 cells) | CC50 (CT26) [µM] | toxicity to HEK293 cells (HEK293 cells) | Survival rate of cancer cells in primary screening (MDA-MB-231) | Survival rate of cancer cells in primary screening (MCF7) | Survival rate of cancer cells in primary screening (B16) | Survival rate of cancer cells in primary screening (Hela) | Survival rate of cancer cells in primary screening (MDA-MB-436)
1 | RRFAWIGKLQSRKVRNNIRQYRTKIVRQMRRQIFRQMKQKAE [pACP1780] | 0.085 | 0.03 | slight decrease | no significant symptoms of illness or body weight loss | 0.0167 | 0.47 | disintegrated cell membranes | 6.23 | no toxicity to HEK293 cells | 0.09 | 0.0113 | 0.41 | 0.00724 | 0.00535
2 | WWRRAERSVRRFFGTPIGPFPEIFGRRKAHKKKIIAKFDSVNG [pACP2283] | 0.03 | 0.0341 | slight decrease | no significant symptoms of illness or body weight loss | 0.0119 | 0.49 | disintegrated cell membranes | 10.56 | no toxicity to HEK293 cells | 0.06 | 0.0549 | 0.28 | 0.00225 | 0.00645
